These results are taken from the supplement of paper PMC10307832.

What all share (assay): relative viability (nuclei count vs DMSO), 5 days (fraction); higher = more cells survive
Compound in experiment [1]: O=c1ncccn1[C@@H]1O[C@H](CO)[C@@H](O)[C@H]1O [Zebularine] + Cc1nc(NC(=O)N2CCC[C@H]2C(N)=O)sc1-c1ccnc(C(C)(C)C(F)(F)F)c1 [Alpelisib] (partner 2 µM)
In a few lines: (§1)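 One day after seeding in 1536-well plates, lung cancer cell lines were dosed by pin tool. Dosing was either single-drug or a fixed anchor-drug dose plus five library-drug doses (not always all listed) in √10 steps. After 5 days, nuclei were stained in one fix-and-stain step and counted on 4× images, and relative viability is the nuclei count of treated wells over that of vehicle wells, given as the median of duplicate plates.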

Compound in experiment [2]: CC(C)CCN1c2nc(Nc3cc(F)c(O)c(F)c3)ncc2N(C)C(=O)C1C [BI-D1870] + Nc1ncn([C@H]2C[C@H](O)[C@@H](CO)O2)c(=O)n1 [Decitabine] (partner 2 µM)
In a few lines:
as §1

Compound in experiment [3]: CC(C)CCN1c2nc(Nc3cc(F)c(O)c(F)c3)ncc2N(C)C(=O)C1C [BI-D1870] + O=C(CCCCCCC(=O)Nc1ccccc1)NO [Vorinostat] (partner 1 µM)
The essentials:
as §1

Compound in experiment [4]: O=c1ncccn1[C@@H]1O[C@H](CO)[C@@H](O)[C@H]1O [Zebularine] + CS(=O)(=O)CCNCc1ccc(-c2ccc3ncnc(Nc4ccc(OCc5cccc(F)c5)c(Cl)c4)c3c2)o1 [Lapatinib] (partner 2 µM)
The essentials:
as §1

As for NCI-H441, the relative viability in experiment [1] (first compound 1 µM) is 0.779; in experiment [1] (first compound 3.162 µM), 0.73; in experiment [1] (first compound 10 µM) it was 0.496; in experiment [1] (first compound 31.62 µM) it was 0.271; in experiment [1] (first compound 100 µM), 0.264; in experiment [2] (first compound 0.04 µM), 0.249. The relative viability in experiment [2] (first compound 0.1265 µM) came to 0.273; in experiment [2] (first compound 0.4 µM), 0.275; in experiment [2] (first compound 1.265 µM) it was 0.255; in experiment [2] (first compound 4 µM) it was 0.312; in experiment [3] (first compound 0.04 µM) it was 0.686; in experiment [3] (first compound 0.1265 µM), 0.794. The relative viability was determined as 0.731 in experiment [3] (first compound 0.4 µM), 0.722 in experiment [3] (first compound 1.265 µM) and 0.655 in experiment [3] (first compound 4 µM).
With NCI-H522, the relative viability in experiment [2] (first compound 0.04 µM) stood at 0.595; in experiment [2] (first compound 0.1265 µM) it was 0.762; in experiment [2] (first compound 0.4 µM), 0.677; in experiment [2] (first compound 1.265 µM), 0.647; in experiment [2] (first compound 4 µM) it was 0.661; in experiment [3] (first compound 0.04 µM), 1.02. The relative viability in experiment [3] (first compound 0.1265 µM) was determined as 1.09; in experiment [3] (first compound 0.4 µM) it was 1.01; in experiment [3] (first compound 1.265 µM), 0.907; in experiment [3] (first compound 4 µM), 0.94.
Regarding NCI-H1299, the relative viability in experiment [1] (first compound 1 µM) was determined as 1.05; in experiment [1] (first compound 3.162 µM), 1.16; in experiment [1] (first compound 10 µM), 0.836; in experiment [1] (first compound 31.62 µM), 1.16; in experiment [1] (first compound 100 µM), 0.529; in experiment [4] (first compound 1 µM), 0.965. In addition, the relative viability came out at 0.937 in experiment [4] (first compound 3.162 µM), 0.619 in experiment [4] (first compound 10 µM), 0.968 in experiment [4] (first compound 31.62 µM) and 0.493 in experiment [4] (first compound 100 µM).
For the cell line NCI-H1563, the relative viability was found to be 0.932 in experiment [1] (first compound 1 µM); 0.888 in experiment [1] (first compound 3.162 µM); 0.927 in experiment [1] (first compound 10 µM); 0.955 in experiment [1] (first compound 31.62 µM); 0.909 in experiment [1] (first compound 100 µM); 1 in experiment [4] (first compound 1 µM). Besides, the relative viability in experiment [4] (first compound 3.162 µM) amounted to 0.782; in experiment [4] (first compound 10 µM), 0.907; in experiment [4] (first compound 31.62 µM), 1.13; in experiment [4] (first compound 100 µM), 0.946.
Turning to NCI-H1648, the relative viability was determined as 0.463 in experiment [2] (first compound 0.04 µM); 0.505 in experiment [2] (first compound 0.1265 µM); 0.527 in experiment [2] (first compound 1.265 µM); 0.578 in experiment [2] (first compound 4 µM); 0.345 in experiment [3] (first compound 0.04 µM); 0.333 in experiment [3] (first compound 0.1265 µM). Also, the relative viability in experiment [3] (first compound 1.265 µM) was found to be 0.626; in experiment [3] (first compound 4 µM), 0.697.
Consider NCI-H1650, for which the relative viability turned out to be 0.878 in experiment [4] (first compound 1 µM); 0.618 in experiment [4] (first compound 3.162 µM); 1.08 in experiment [4] (first compound 31.62 µM); 0.86 in experiment [4] (first compound 100 µM); 0.405 in experiment [2] (first compound 0.04 µM); 0.43 in experiment [2] (first compound 0.1265 µM). Further, the relative viability in experiment [2] (first compound 0.4 µM) stood at 0.554; in experiment [2] (first compound 1.265 µM), 0.572; in experiment [2] (first compound 4 µM), 0.589; in experiment [3] (first compound 0.04 µM), 0.613; in experiment [3] (first compound 0.1265 µM), 0.425; in experiment [3] (first compound 0.4 µM), 0.646. Besides, the relative viability amounted to 0.595 in experiment [3] (first compound 1.265 µM) and 0.577 in experiment [3] (first compound 4 µM).
NCI-H1703: the relative viability in experiment [1] (first compound 1 µM) turned out to be 0.311; in experiment [1] (first compound 3.162 µM) it was 0.337; in experiment [1] (first compound 10 µM) it was 0.307; in experiment [1] (first compound 31.62 µM) it was 0.325; in experiment [1] (first compound 100 µM), 0.353; in experiment [4] (first compound 1 µM), 0.994. In addition, the results for the relative viability in experiment [4] (first compound 3.162 µM), in experiment [4] (first compound 31.62 µM) and in experiment [4] (first compound 100 µM) were 0.979, 1.52 and 0.952, respectively.
NCI-H1792: the relative viability in experiment [1] (first compound 1 µM) worked out at 0.8; in experiment [1] (first compound 3.162 µM) it was 0.622; in experiment [1] (first compound 10 µM), 0.514; in experiment [1] (first compound 31.62 µM), 0.215; in experiment [1] (first compound 100 µM), 0.316; in experiment [4] (first compound 1 µM), 0.978. The relative viability stood at 0.879 in experiment [4] (first compound 3.162 µM); 0.416 in experiment [4] (first compound 10 µM); 0.428 in experiment [4] (first compound 31.62 µM); 0.284 in experiment [4] (first compound 100 µM); 0.558 in experiment [2] (first compound 0.04 µM); 0.525 in experiment [2] (first compound 0.1265 µM). Moreover, the relative viability in experiment [2] (first compound 0.4 µM) came to 0.596; in experiment [2] (first compound 1.265 µM), 0.851; in experiment [2] (first compound 4 µM), 0.666.
Turning to NCI-H2228, the relative viability in experiment [1] (first compound 1 µM) amounted to 0.782; in experiment [1] (first compound 3.162 µM), 0.615; in experiment [1] (first compound 10 µM) it was 0.632; in experiment [1] (first compound 31.62 µM), 0.693; in experiment [1] (first compound 100 µM), 0.374; in experiment [4] (first compound 1 µM), 1.19. Moreover, the relative viability was found to be 1.04 in experiment [4] (first compound 3.162 µM); 0.66 in experiment [4] (first compound 10 µM); 0.638 in experiment [4] (first compound 31.62 µM); 0.281 in experiment [4] (first compound 100 µM); 0.889 in experiment [3] (first compound 0.04 µM); 0.512 in experiment [3] (first compound 0.1265 µM). Moreover, the relative viability in experiment [3] (first compound 0.4 µM) was 0.824; in experiment [3] (first compound 1.265 µM) it was 0.959; in experiment [3] (first compound 4 µM), 0.32.
For NCI-H2342, the relative viability in experiment [2] (first compound 0.04 µM) came to 0.714; in experiment [2] (first compound 0.1265 µM) it was 0.69; in experiment [2] (first compound 0.4 µM), 0.793; in experiment [2] (first compound 1.265 µM) it was 0.891; in experiment [2] (first compound 4 µM), 0.795; in experiment [3] (first compound 0.04 µM), 0.806. Moreover, the relative viability is 0.61 in experiment [3] (first compound 0.1265 µM), 0.718 in experiment [3] (first compound 0.4 µM), 0.812 in experiment [3] (first compound 1.265 µM) and 0.966 in experiment [3] (first compound 4 µM).
For the cell line SW 900, the relative viability in experiment [2] (first compound 0.04 µM) came out at 0.479; in experiment [2] (first compound 0.1265 µM) it was 0.47; in experiment [2] (first compound 0.4 µM), 0.472; in experiment [2] (first compound 1.265 µM) it was 0.534; in experiment [2] (first compound 4 µM), 0.498; in experiment [3] (first compound 0.04 µM), 0.504. Further, the relative viability was 0.537 in experiment [3] (first compound 0.1265 µM), 0.582 in experiment [3] (first compound 0.4 µM), 0.725 in experiment [3] (first compound 1.265 µM) and 0.466 in experiment [3] (first compound 4 µM).
